Tests used:
[1] = system: RPE/Smo-GFP primary cilia model cells; assay: Assessment of primary ciliary activation (confocal microscopy); assay type: cell-based, human; settings: 20 μM, 100 μM, 24 hours, vs control group
Description: In order to confirm the primary cilia activation effect of 2-isopropylmalic acid, RPE/Smo-GFP, primary cilia model cells, was prepared. Specifically, human telomerase-immortalized retinal pigmented epithelial (RPE) cells (ATCC Inc.) were transformed with Smo-GFP plasmid (Addgene Inc.) to prepare RPE/Smo-GFP. After treating RPE/Smo-GFP with 2-isopropylmalic acid (Sigma Aldrich Inc.) at different concentrations (20 μM, 100 μM) for 24 hours, the primary cilia production rate and primary cilia length were measured by confocal microscopy (LSM510; Carl Zeiss Microimaging Inc., Thornwood, N.Y.) and the results were shown in FIGS. 2 and 3. The production rate of primary cilia was expressed as the ratio of the number of cells having primary cilia to the total number of cells as a percentage, and the length of primary cilia was a measure of the actual length of all cilia observed under a microscope. As a positive control, SAG (SMO agonist, Calbiochem Inc.), which was a primary cilia production promoting substance, was used.

[2] = system: RPE/Smo-GFP primary cilia model cells; assay: Assessment of activation of primary cilia inhibited by particulate matter (PM2.5); assay type: cell-based, human; settings: PM2.5 50 ug/ml, 100 μM, 24 hours
Description: Particulate matter (PM2.5) was treated in RPE/Smo-GFP, which was the primary cilia model cells of Experimental Example 2. Specifically, particulate matter was directly collected in the air (37.34° N, 127.27° E, 167 m above sea level) using a Teflon filter (Teflon filter, Zefluor, Pall Life Science, Ann Arbor, Mich., USA). Then, this was treated at a concentration of 50 ug/ml in the cell culture medium. Thereafter, after treatment with 100 μM of 2-isopropylmalic acid for 24 hours, the fluorescence of Smo-GFP was visually observed using a fluorescence microscope, and then the production rate and length of primary cilia were measured and shown in FIGS. 4 and 5. The production rate of primary cilia was expressed as the ratio of the number of cells having primary cilia to the total number of cells as a percentage, and the length of primary cilia was a measure of the actual length of all cilia observed under a microscope. As a positive control, SAG (SMO agonist, Calbiochem Inc.), which was a primary cilia production promoting substance, was used.

c-Jun = c-Jun phosphorylation in particulate matter-treated fibroblasts (western blotting); assay type: cell-based; settings: human-derived fibroblasts, PM2.5, 100 μM, 24 hours; effect similar to SP600125
Description: Human-derived fibroblasts (LONZA Inc.) were treated with particulate matter (PM2.5). Then, after treatment with 100 μM of 2-isopropylmalic acid for 24 hours, cell lysate was made, protein was quantified, and the same amount of protein was separated by electrophoresis, and c-Jun, p-c-Jun (phosphorylated c-Jun) was performed by western blotting.

MMP-1 [3] = assay: MMP-1 expression in particulate matter-treated fibroblasts (western blotting); assay type: cell-based; settings: human-derived fibroblasts, PM2.5, 100 μM, 24 hours
collagen = assay: Collagen expression in particulate matter-treated fibroblasts (western blotting); assay type: cell-based; settings: human-derived fibroblasts, PM2.5, 100 μM, 24 hours
IL-6 = IL-6 expression in particulate matter-treated fibroblasts (ELISA); assay type: cell-based; settings: human-derived fibroblasts, PM2.5 50 ug/mL, 100 μM, 24 hours
Description: (§1) Human-derived fibroblasts (LONZA Inc.) were transfected with siRNA for IFT88 (siIFT88) or scrambled siRNA (SC), respectively, and then were treated with 50 ug/mL of particulate matter (PM2.5) and 100 μM of 2-isopropylmalic acid for 24 hours. Thereafter, the expression levels of IL-6 and TNF-α, which were inflammatory cytokines, were measured in culture conditions by ELISA assay, and the results were shown in FIG. 9.

TNF-α = TNF-α expression in particulate matter-treated fibroblasts (ELISA); assay type: cell-based; settings: human-derived fibroblasts, PM2.5 50 ug/mL, 100 μM, 24 hours
Description: as §1

MMP-1 [4] = assay: Inhibition of MMP-1 expression in an artificial skin model (immunocytochemistry, image analysis); assay type: cell-based; settings: full-thickness human 3D-skin model, PM2.5 100 ug/mL, 50 uM, 100 uM, 48 hours
Description: The effect of 2-IPMA on the skin was evaluated using a full-thickness human three-dimensional (3-D)-skin model. The full-thickness human 3D-skin model was fabricated in the following way. An artificial dermal layer was formed by loading a mixture of collagen (Nutragen, Advanced Biomatrix Inc.) and fibroblasts (NDFn, ThermoFisher Inc.) in a volume of 400 ul in Transwell® (Corning Inc.). Thereafter, a fibroblast culture medium (M106, Gibco Inc.) was put on the artificial dermal layer and cultured for 7 days to stabilize the artificial dermal layer. Next, keratinocytes (HEKn, ThermoFisher Inc.) were seeded on the artificial dermal layer, and cultured in keratinocyte culture medium (EpiLife, Gibco Inc.) for 1 day, followed by epidermal layer production medium (CnT-3DPR, CellnTEC) for 1 day, and then cultured in the same epidermal layer production medium for 10 days in a state of exposure to air to form an artificial epidermal layer, thereby constructing a full-thickness human 3D-skin model. 100 ug/mL of particulate matter (PM2.5) and 2-isopropylmalic acid (50 uM, 100 uM) were treated in the full-thickness human three-dimensional skin model constructed in this way for 48 hours. Thereafter, hematoxylin-eosin (H&E) staining and MMP-1 immunocytochemistry were performed, and the results were shown in FIG. 10.

SMILES: CC(C)C(O)(CC(=O)O)C(=O)O (stereo not shown) [2-isopropylmalic acid]
- length of primary cilia [1]: increased
- proportion of cells with primary cilia (production rate of primary cilia) [1]: statistically significantly higher than that of the control group
- length of primary cilia [2]: getting longer
- production of primary cilia suppressed by particulate matter [2]: restored
- phosphorylation of c-Jun by particulate matter (c-Jun): suppressed
- MMP-1 expression (MMP-1 [3]): decreased
- collagen expression (collagen): increased
- expression of IL-6 increased by particulate matter (IL-6): reduced
- expression of TNF-α increased by particulate matter (TNF-α): reduced
- expression of MMP-1 increased by the particulate matter (MMP-1 [4]): decreased

Reference: patent US20220378676A1, “COMPOSITION FOR ENHANCING SKIN ELASTICITY OR IMPROVING SKIN WRINKLES” (AMOREPACIFIC CORPORATION, priority 2021, published 2022)
